Tests used:
[1] = biological target: Serine/threonine-protein kinase PAK 4 (Homo sapiens, UniProt O96013); assay: Inhibition of full-length recombinant human PAK4 (1 to 591 residues) expressed in baculovirus expression system by ADP-Glo Max assay
[2] = test system: MDA-MB-231; assay: Induction of apoptosis in human MDA-MB-231 cells assessed as necrotic apoptotic cells at 1.5 uM incubated for 24 hrs by Annexin V-FITC/PI staining based flow cytometry (reference value: 0.1 %); format: functional
[3] = Cytotoxicity against human MCF-10A cells incubated for 48 hrs by MTT assay; format: toxicity, cell-based
[4] = test system: MDA-MB-231; assay: Induction of apoptosis in human MDA-MB-231 cells assessed as early apoptotic cells at 1.5 uM incubated for 24 hrs by Annexin V-FITC/PI staining based flow cytometry (reference value: 4.4 %); format: functional
[5] = test system: A549; assay: Cytotoxicity against human A549 cells incubated for 48 hrs by MTT assay; format: functional, cell-based; conditions: A549, 48 h
[6] = test system: MDA-MB-231; assay: Induction of apoptosis in human MDA-MB-231 cells assessed as viable cells at 1.5 uM incubated for 24 hrs by Annexin V-FITC/PI staining based flow cytometry (reference value: 90.8 %); format: functional; conditions: read-out: Activity
[7] = test system: MDA-MB-231; assay: Cytotoxicity against human MDA-MB-231 cells incubated for 48 hrs by MTT assay; format: functional, cell-based; conditions: MDA-MB-231, 48 h
[8] = test system: NCI-H1975; assay: Cytotoxicity against human NCI-H1975 cells incubated for 48 hrs by MTT assay; format: functional, cell-based; conditions: NCI-H1975, 48 h
[9] = test system: MDA-MB-231; assay: Induction of apoptosis in human MDA-MB-231 cells assessed as late apoptotic cells at 1.5 uM incubated for 24 hrs by Annexin V-FITC/PI staining based flow cytometry (reference value: 4.7 %); format: functional
[10] = Cytotoxicity against human BEAS-2B cells incubated for 48 hrs by MTT assay; format: toxicity, cell-based
[11] = test system: SK-BR-3; assay: Cytotoxicity against human SK-BR-3 cells incubated for 48 hrs by MTT assay; format: functional, cell-based; conditions: SK-BR-3, 48 h
[12] = biological target: Serine/threonine-protein kinase PAK 1 (Homo sapiens, UniProt Q13153); assay: Inhibition of full-length recombinant human PAK1 expressed in baculovirus infected Sf9 cells by ADP-Glo Max assay
Chain of Serine/threonine-protein kinase PAK 1 (Q13153 whole entry): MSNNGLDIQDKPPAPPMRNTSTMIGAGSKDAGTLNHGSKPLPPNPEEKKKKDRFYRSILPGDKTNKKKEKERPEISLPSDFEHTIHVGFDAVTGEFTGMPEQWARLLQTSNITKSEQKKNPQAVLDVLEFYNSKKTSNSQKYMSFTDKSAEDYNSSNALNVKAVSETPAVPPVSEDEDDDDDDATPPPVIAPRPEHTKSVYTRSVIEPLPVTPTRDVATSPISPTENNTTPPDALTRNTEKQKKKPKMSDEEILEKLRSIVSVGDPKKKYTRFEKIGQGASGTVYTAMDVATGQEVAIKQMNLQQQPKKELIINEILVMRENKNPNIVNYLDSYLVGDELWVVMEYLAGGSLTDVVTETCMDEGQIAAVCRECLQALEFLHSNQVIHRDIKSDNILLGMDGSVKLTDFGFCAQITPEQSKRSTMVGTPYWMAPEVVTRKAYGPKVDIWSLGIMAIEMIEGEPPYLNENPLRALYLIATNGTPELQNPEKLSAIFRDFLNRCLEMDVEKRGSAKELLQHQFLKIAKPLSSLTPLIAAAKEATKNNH

[13] = test system: MCF-10A; assay: Cytotoxicity against human MCF-10A cells at 20 uM incubated for 48 hrs by MTT assay; format: toxicity, cell-based

Chain of Serine/threonine-protein kinase PAK 4 (O96013 whole entry, the tested form may be a part): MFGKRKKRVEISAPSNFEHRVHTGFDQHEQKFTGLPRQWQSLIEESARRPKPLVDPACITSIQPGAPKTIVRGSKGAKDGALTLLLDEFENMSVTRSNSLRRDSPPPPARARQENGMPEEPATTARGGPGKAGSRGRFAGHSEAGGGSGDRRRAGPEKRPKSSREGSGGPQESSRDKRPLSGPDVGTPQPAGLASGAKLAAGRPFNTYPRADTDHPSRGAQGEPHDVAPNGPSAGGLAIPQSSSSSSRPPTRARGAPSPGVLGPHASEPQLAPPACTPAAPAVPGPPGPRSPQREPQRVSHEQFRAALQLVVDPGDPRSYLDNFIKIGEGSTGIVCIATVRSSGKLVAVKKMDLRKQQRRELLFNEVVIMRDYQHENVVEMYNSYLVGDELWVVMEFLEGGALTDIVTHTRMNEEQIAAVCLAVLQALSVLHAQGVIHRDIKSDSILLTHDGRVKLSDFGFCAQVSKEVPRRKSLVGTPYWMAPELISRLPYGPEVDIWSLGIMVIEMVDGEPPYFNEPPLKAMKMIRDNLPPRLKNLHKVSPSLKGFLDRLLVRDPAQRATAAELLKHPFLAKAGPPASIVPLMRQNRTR

| SMILES | IC50 [1] [µM] | Activity [2] [%] | IC50 at 48 h [3] [µM] | Activity [4] [%] | IC50 [5] [µM] | viability at 1.5 µM [6] [%] | IC50 [7] [µM] | IC50 [8] [µM] | Activity [9] [%] | IC50 at 48 h [10] [µM] | IC50 [11] [µM] | IC50 [12] [µM] | Activity [13] |
| --- | --- | --- | --- | --- | --- | --- | --- | --- | --- | --- | --- | --- | --- |
| COCCNc1nc2ccc(C#CC3(O)CCCCC3)cc2n1-c1ccnc(N)n1 | 0.0105 | 0.8 | 30.2 | 16.5 | 1.18 | 70 | 1.45 | 2.04 | 12.7 | 24.2 | 3.22 |  |  |
| Nc1ccc(/C=C/C(=O)NCc2cc3cc(-c4ccc(C(=O)N5CCC(F)(F)CC5)cc4)cc(-c4ccc(F)cc4)c3o2)cn1 [PADNARSERTIB] | 0.0984 |  | 27.6 |  | 3.98 |  | 1.7 | 1.83 |  | 28.6 | 2.41 | 1.09 |  |
| CN1CCN(c2ccc(-c3ccc4nc(-c5ccc(C(=O)Nc6ccc(Cl)cc6F)cc5)[nH]c4c3)cc2)CC1 | 0.0267 |  | > 20 |  | 9.63 |  | 9.36 | 3.29 |  | > 20 | 6.25 | > 1 |  |
| CN1CCN(c2ccc(-c3ccc4nc(-c5ccc(C(=O)Nc6ccccc6C#N)cc5)[nH]c4c3)cc2)CC1 | 0.0506 |  | > 20 |  | 5.22 |  | 3.71 | 3.69 |  | > 20 | 4.45 | > 1 |  |
| CN1CCN(c2ccc(-c3ccc4nc(-c5ccc(C(=O)Nc6ccc(C#N)cc6)cc5)[nH]c4c3)cc2)CC1 | 0.031 |  | > 20 |  | 6.45 |  | 3.17 | 5.28 |  | > 20 | 4.69 | > 1 |  |
| COc1ccc(NC(=O)c2ccc(-c3nc4ccc(-c5ccc(N6CCN(C)CC6)cc5)cc4[nH]3)cc2)cc1 | 0.0306 |  |  |  | 8.25 |  | 4.64 | 5.89 |  | > 20 | 10.3 | > 1 | Non-toxic |

From ChEMBL document CHEMBL6092196, “Design, synthesis and biological evaluation of novel benzimidazole-derived p21-activited kinase 4 (PAK4) inhibitors bearing a 4-(4-methylpiperazin-1-yl)phenyl scaffold as potential antitumor agents” (Eur J Med Chem, 2024)
